Earlier results, collected in publication PMC11642016 (International Journal of Molecular Sciences, 2024).

Test system: PANC-1 and A2058 cells
Set-up: method as in PMID 35455465
Conditions: 24 h exposure time; cited from earlier work

In the case of `NCC#Cc1ccc(CN2C(=O)C3=C(CCN(Cc4ccc(-n5cc(-c6ccccc6)nn5)cc4)C3)N3CCN=C23)cc1` [I/B, reference compound], the apoptosis induction is given as “far more efficient in apoptosis induction than ONC201”.
